Measurements reported in US5236918A, “6-aryl-3-cyanaminopyridazines, their preparation and use and medicaments containing them” (BYK Gulden Lomberg Chemische Fabrik GmbH, priority 1989, dated 1993).

Experiments:
[1] = test system: tracheal ring chain of the guinea-pig; assay: bronchospasmolytic action on the tracheal ring chain of the guinea-pig in vitro (relaxation of stable tonic spontaneous contraction); format: cell-based; conditions: for EC50: Cavia porcellus, EC50 in mol/l, 50% of the maximum relaxation achievable with (-)isoprenaline 10^-6 mol/l, spontaneous contraction, 37° C.; for [EC50]theophylline / [EC50]substance: quotient of EC50 values, theophylline = 1
Procedure: The bronchospasmolytic action of the compounds on the tracheal ring chain of the guinea-pig was tested in vitro as follows: Four parallel tracheal ring chains, each consisting of 6 individual rings, of the guinea-pig (female and male, 430-600 g), in an organ bath [5 ml, Krebs-Henseleit solution with addition of phentolamine (10^-5 mol/l), 37° C., pretension of the organs 2 g, gassing with carbogen] develop a stable, tonic spontaneous contraction after about 20 to 30 minutes. Relaxation can be brought about on these permanently contracted organs under isometric measurement conditions by application of the test substance in a cumulatively semi-logarithmically increasing concentration (e.g. 1×10^-6 +2×10^-6 +7×10^-6 +2×10^-5etc. mol/l), a constant relaxation response being awaited after each individual dose of the test substance before the next higher concentration is applied. A complete dose/effect curve of the test substance is thus obtained over a period of 20 to 30 minutes. The particular relaxation is expressed as the percentage fraction of the maximum relaxation which can be achieved by addition of (-)isoprenaline (10^-6 mol/l).

[2] = molecular target: T1, PDE III (Homo sapiens, UniProt Q14432); assay: inhibition of PDE III isolated from human platelets; format: biochemical; conditions: for [IC50]theophylline / [IC50]substance: PDE III, quotient of IC50 values, theophylline = 1; for IC50: human platelets, cAMP 0.5 μmol/l, 37° C., 20 minutes, read-out: -log[IC50] PDE III (converted)
T1 construct: PDE III isolated from human platelets; from tissue; host or cells: human platelets
T1 sequence (Q14432 whole entry): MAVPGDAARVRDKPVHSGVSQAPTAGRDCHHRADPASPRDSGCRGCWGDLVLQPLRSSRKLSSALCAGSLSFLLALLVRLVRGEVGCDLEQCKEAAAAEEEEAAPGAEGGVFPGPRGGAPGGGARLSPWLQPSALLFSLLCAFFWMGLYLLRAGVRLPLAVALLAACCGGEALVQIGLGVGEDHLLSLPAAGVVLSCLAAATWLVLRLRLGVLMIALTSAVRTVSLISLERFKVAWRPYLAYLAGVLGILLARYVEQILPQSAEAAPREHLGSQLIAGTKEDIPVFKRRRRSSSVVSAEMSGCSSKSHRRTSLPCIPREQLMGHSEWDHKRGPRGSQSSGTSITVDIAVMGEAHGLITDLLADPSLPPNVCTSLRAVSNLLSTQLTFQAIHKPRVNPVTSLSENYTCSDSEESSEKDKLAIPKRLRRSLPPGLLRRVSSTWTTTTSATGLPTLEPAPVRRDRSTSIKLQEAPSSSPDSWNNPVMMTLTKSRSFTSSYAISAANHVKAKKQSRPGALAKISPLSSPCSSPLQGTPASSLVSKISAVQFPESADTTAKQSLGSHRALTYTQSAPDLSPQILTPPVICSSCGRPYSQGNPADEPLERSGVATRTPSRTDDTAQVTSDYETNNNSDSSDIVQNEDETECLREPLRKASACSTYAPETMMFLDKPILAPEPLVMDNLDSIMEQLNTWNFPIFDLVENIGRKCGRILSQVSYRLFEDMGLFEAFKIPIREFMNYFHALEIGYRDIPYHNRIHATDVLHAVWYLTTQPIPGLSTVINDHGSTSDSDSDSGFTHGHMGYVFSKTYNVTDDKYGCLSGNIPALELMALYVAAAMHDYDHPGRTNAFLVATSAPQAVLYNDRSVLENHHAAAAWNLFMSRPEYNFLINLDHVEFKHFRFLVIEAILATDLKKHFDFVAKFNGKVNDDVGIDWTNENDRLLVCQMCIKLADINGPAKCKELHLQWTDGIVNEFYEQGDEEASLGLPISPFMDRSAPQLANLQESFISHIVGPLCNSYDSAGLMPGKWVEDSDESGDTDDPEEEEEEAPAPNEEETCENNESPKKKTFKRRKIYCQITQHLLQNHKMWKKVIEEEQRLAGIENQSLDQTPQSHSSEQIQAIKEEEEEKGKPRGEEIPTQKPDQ
Source text: (§1) The inhibition of phosphodiesterases of classes III (PDE III=high-affinity cAMP-PDE which can be inhibited by cGMP) and IV (PDE IV=high-affinity cAMP-PDE which cannot be inhibited by cGMP, Rolipram-sensitive) is regarded as being particularly conclusive for a bronchospasmolytic and/or antiinflammatory action which may be expected [H. Hidaka et al., Adv. Cycl. Nucl. Res. 13, 145 (1984); Tips 5, 237 (1984); R. Weishaar et al., J. Med. Chem. 28, 537 (1985); S. A. Harrison et al., Molec. Pharmac. 29, 506 (1986); J. Klein-Tebbe et al., Allergologie 12, 12 (1989); C. Schudt et al., Allergologie 12, 12 (1989)].
(§2) The PDE inhibition of the compounds according to the invention was therefore determined on a PDE III isolated from human platelets and PDE IV isolated from human neutrophilic polymorphonuclear cells (PMNs) and from the canine trachea. The phosphodiesterases III and IV are isolated by chromatography by the method of Polson et al., Biochem. Pharmacol. 31, 3403-3406 (1982).
(§3) The substances are dissolved in DMSO and diluted further. From a series of solutions diluted up to a hundred-fold, 2.1 μl portions are taken and 212 μl reaction mixture are added. The reaction mixture contains Hepes (100 mmol/l), DTE (5 mmol/l), MgCl2 (5 mmol/l), CaCl2 (10 μmol/l), BSA fraction V 0.5 mg/ml, cAMP 0.5 μmol/l, 2,8-^3 H-cAMP 250,000 cpm/ml (0.3 μCi/ml, s.a. 33.5 μCi/mmol) and SV (snake venom) (25 μg/212 μl test batch).
(§4) The reaction is started by addition of 10 μl PDE to the reaction mixture and to the substance batch. The mixtures are then incubated at 37° C. for 20 minutes. The reaction is stopped by heating at 95° C. for 45 seconds. After the samples have cooled, the SV solution is added, the 5-AMP formed being cleaved. After incubation for 30 minutes at 37° C., this reaction is stopped by addition of 1 ml anion exchanger suspension. The cAMP which remains is thereby bonded. The adenosine formed remains in the supernatant after centrifugation and can be measured in an aliquot by the radioactivity contained therein.

[3] = test system: PDE IV; assay: inhibition of PDE IV from the canine trachea; format: biochemical; conditions: for [IC50]theophylline / [IC50]substance: PDE IV canine trachea, quotient of IC50 values, theophylline = 1; for -log[IC50] PDE IV canine trachea: cAMP 0.5 μmol/l, 37° C., 20 minutes
Source text: as §1, §2, §3, §4

[4] = test system: PDE IV; assay: inhibition of PDE IV from human neutrophilic polymorphonuclear cells (PMNs); format: biochemical; conditions: for [IC50]theophylline / [IC50]substance: PDE IV human PMNs, quotient of IC50 values, theophylline = 1; for -log[IC50] PDE IV PNMs: human neutrophilic polymorphonuclear cells, cAMP 0.5 μmol/l, 37° C., 20 minutes
Source text: as §1, §2, §3, §4

[5] = test system: acetylcholine-induced bronchospasm; assay: protective action against acetylcholine-induced bronchospasm on the conscious guinea-pig; format: in vivo; conditions: Cavia porcellus, 0.5 h; verum, oral, 100 μmol/kg, 30 minutes after administration; protected = latency period at least three times; read-out: Number of animals protected/number of animals used (converted)
Procedure: The bronchospasmolytic action was additionally tested on the model of "Protective action against acetylcholine-induced bronchospasm on the conscious guinea-pig":
Guinea-pigs (250-350 g) are exposed in a closed Plexiglas cylinder (volume 5 l) to an acetylcholine mist (0.06% in 0.9% sodium chloride solution; ultrasonic mister Heyer Use 77) twice before administration of the substance at an interval of 20 minutes, and 30 minutes after administration of the substance. The time from the start of misting to the onset of clear respiratory exertion (under certain circumstances hypoxic convulsions in the lateral position) is measured and defined as the latency period. A prolonging of the latency period after administration of the substance to at least three times the average latency period before administration of the substance is regarded as a protective action, and the number of protected animals in the group is stated. The test substances are administered orally by means of a stomach tube (dose 100 μmol/kg, volume 1 ml/kg, suspending agent 4% Methocel suspension in 0.9% sodium chloride solution).
The test substance is administered perorally by means of a stomach tube (standard dose 100 μmol, volume 1 ml 4% Methocel suspension in 0.9% sodium chloride solution/kg). After 30 minutes, the animals are exposed to the acetylcholine mist again and the latency periods are measured. Prolonging of the latency period to at least three times the length is regarded as a protective action.

Structure (SMILES)	EC50 [1] [µM]	[EC50]theophylline / [EC50]substance [1]	[IC50]theophylline / [IC50]substance [2]	IC50 [2] [µM]	[IC50]theophylline / [IC50]substance [3]	-log[IC50] PDE IV canine trachea [3]	[IC50]theophylline / [IC50]substance [4]	-log[IC50] PDE IV PNMs [4]	responders at 100 µmol/kg [5] [%]
CCCOc1ccc(-c2ccc(NC#N)nn2)cc1OC [Compound 1, 3-Cyanamino-6-(3-methoxy-4-n-propoxyphenyl)pyridazine]	5.62	24.0							
CCOc1cc(-c2ccc(NC#N)nn2)ccc1OC [Compound 2, 3-Cyanamino-6-(3-ethoxy-4-methoxyphenyl)pyridazine]	3.02	44.7	15.5	10.5	95.6	5.79			
COc1cc(-c2ccc(NC#N)nn2)ccc1OCC(C)C [Compound 5, 3-Cyanamino-6-[3-methoxy-4-(2-methylpropoxy)phenyl]pyridazine]	3.55	38.1							
COc1cc(-c2ccc(NC#N)nn2)ccc1OC(C)C [Compound 6, 3-Cyanamino-6-[3-methoxy-4-(1-methylethoxy)phenyl]pyridazine]	8.13	16.6	25.7	6.31					
CCOc1ccc(-c2ccc(NC#N)nn2)cc1OC [Compound 7, 3-Cyanamino-6-(4-ethoxy-3-methoxyphenyl)pyridazine]	6.46	20.9	18.2	8.91	32.4	5.32			
COc1cc(-c2ccc(NC#N)nn2)ccc1OC(F)F [Compound 8, 3-Cyanamino-6-(4-difluoromethoxy-3-methoxyphenyl)pyridazine]	1.86	72.5			70.8	5.66			
COc1ccc(-c2ccc(NC#N)nn2)cc1OC(F)F [Compound 9, 3-Cyanamino-6-(3-difluoromethoxy-4-methoxyphenyl)pyridazine]	2.34	57.6	13.2	12.3	69.2	5.65			
COc1ccc(-c2ccc(NC#N)nn2)cc1OC [Compound 10, 3-Cyanamino-6-(3,4-dimethoxyphenyl)pyridazine]	7.08	19.1	15.1	10.7	74.1	5.68			
COc1ccc(-c2ccc(NC#N)nn2)cc1OC1CCCC1 [Compound 11, 3-Cyanamino-6-(3-cyclopentyloxy-4-methoxyphenyl)pyridazine]	0.562	240			120	5.89	288	6.22	
CCOc1ccc(-c2ccc(NC#N)nn2)cc1OC(F)F [Compound 14, 3-Cyanamino-6-(3-difluoromethoxy-4-ethoxyphenyl)pyridazine]	2.04	66.1					85.1	5.69	
COc1ccc(-c2ccc(NC#N)nn2)cc1OCC1CCC1 [Compound 15, 3-Cyanamino-6-(3-cyclobutylmethoxy-4-methoxyphenyl)pyridazine]	0.912	148			77.7	5.70			
CC(C)Oc1cc(-c2ccc(NC#N)nn2)ccc1OC(F)F [Compound 16, 3-Cyanamino-6-[4-difluoromethoxy-3-(1-methylethoxy)phenyl]pyridazine]	0.661	204					550	6.50	50
N#CNc1ccc(-c2ccc(OC(F)F)c(OC3CCCC3)c2)nn1 [Compound 17, 3-Cyanamino-6-(3-cyclopentyloxy-4-difluoromethoxyphenyl)pyridazine]	0.759	178					513	6.47	
N#CNc1ccc(-c2ccc(OC(F)F)c(OCC3CC3)c2)nn1 [Compound 18, 3-Cyanamino-6-(3-cyclopropylmethoxy-4-difluoromethoxyphenyl)pyridazine]	0.562	240					759	6.64	50
CC(C)COc1cc(-c2ccc(NC#N)nn2)ccc1OC(F)F [Compound 19, 3-Cyanamino-6-[4-difluoromethoxy-3-(2-methylpropoxy)phenyl]pyridazine]	1.41	95.6					525	6.48	
N#CNc1ccc(-c2ccc(OC(F)F)c(OCC(F)(F)F)c2)nn1 [Compound 20, 3-Cyanamino-6-[4-difluoromethoxy-3-(2,2,2-trifluoroethoxy)phenyl] pyridazine]	2.29	58.9					148	5.93	55
N#CNc1ccc(-c2ccc(OCC3CC3)c(OC(F)F)c2)nn1 [Compound 21, 3-Cyanamino-6-(4-cyclopropylmethoxy-3-difluoromethoxyphenyl)pyridazine]	1	135							
